Laboratory results as given in patent US20020015941A1, “Method for treatment of neurodegenerative diseases” (The General Hospital Corporation, priority 2000, published 2002).
Like-named read-outs stand apart in the source and are kept apart here.

Experiments:
[1] = test system: capacitative Ca2+ entry (CCE) in SY5Y cells; format: cell-based, human
[2] = test system: capacitative calcium entry (CCE); details: literature; cited from earlier work
[3] = test system: IP3-elicited release of Ca2+ from internal stores; details: literature; cited from earlier work
[4] = test system: capacitative calcium entry (CCE) in CHO cells; assay: CCE by ratiometric Ca2+ imaging in CHO cells; format: cell-based, Chinese hamster
[5] = test system: CHO and CHO-APP cells; details: Aβ42 pre-treatment
Protocol: The Aβ42 peptides were obtained from Bachem and dissolved in PBS at 1 mg/ml directly before use.

[6] = test system: ICRAC channels in wild-type PS1 CHO cells; assay: ICRAC by whole-cell patch clamp in stable CHO cells; format: cell-based, Chinese hamster; details: wild-type PS1 CHO cells pretreated with 10 μM SKF96365 for 30 min
[7] = test system: Aβ42/Aβtotal in CHO cells stably overexpressing human APP; assay: Aβ sandwich ELISA, CHO cells stably overexpressing human APP; format: cell-based, Chinese hamster; details: CHO-APP, indicated concentrations for 12 hours (FIG. 5C)
[8] = test system: total Aβ and Aβ42 in D257A-PS1 CHO cells; assay: Aβ generation in CHO cells stably expressing APP and D257A-PS1; format: cell-based, Chinese hamster
[9] = test system: secreted APP-α in 293 cells stably expressing human APP; assay: Secreted APPs-α by immunoprecipitation (22C11) and blot (6E10); format: cell-based; details: SKF96365 treatment, 12 hour
[10] = test system: CHO or 293 cells stably expressing human APP
[11] = test system: voltage-operated Ca2+ channels; details: literature; cited from earlier work

ω-conotoxin GVIA
Ca2+ influx (CCE) after pretreatment [1]: virtually no effect

C=C1[C@@H](C)[C@H]2[C@H](Cc3ccccc3)NC(=O)[C@]23[C@H](OC(C)=O)/C=C/[C@@](C)(O)C(=O)[C@@H](C)C/C=C/[C@H]3[C@@H]1O [CytoD, Cytochalasin D]
Ca2+ influx in wild-type PS1 or M146L-PS1 cells [1]: essentially no effect
effect on CCE [2]: no effect
IP3-elicited release of Ca2+ from internal stores [3]: impairs

Calyculin A
Ca2+ influx (CCE) after pretreatment [1]: blocked

Aβ42: 42-amino acid version of amyloid β-peptide, obtained from Bachem
CCE response after Aβ42 pre-treatment ([4]; CHO and CHO-APP cells pre-incubated with 20 PM Aβ42 for 3 hours): no detectable effect
cell viability [5]: not affected

COc1ccc(CCCOC(Cn2ccnc2)c2ccc(OC)cc2)cc1 (centres unmarked) [SKF96365]
Ca2+ influx (CCE) after pretreatment ([1]; 100 μM SKF96365 1 hr, 100 nM CalyA 20 min, nifedipine 1 μM, ω-conotoxin GVIA 2 μM, prior to induction of CCE): blocked
ICRAC (peak current density) [6]: virtually eliminated
Aβ42-promoting effect versus concentration [7]: dose-dependent
generation of Aβ42 in D257A-PS1 cells ([8]; 50 μM SKF96365): did not restore
generation of total Aβ in D257A-PS1 cells ([8]; 50 μM SKF96365): did not restore
relative Aβ42 levels as share of total Aβ levels in D257A cells ([8]; following treatment with SKF96365 (50 μM)): greater than 90%
degree of CCE reduction in D257A-PS1 cells compared to wild-type PS1 cells ([4]; 50 μM SKF96365, 12 hrs): much less
secreted APP-α levels [9]: did not alter
cell viability [10]: did not alter
effect on voltage-operated Ca2+ channels [11]: minor inhibitory effect
